Laboratory results from patent US20150352114A1, “MITOTIC KINESIN Eg5 INHIBITING ANTICANCER AGENTS” (THE CLEVELAND CLINIC FOUNDATION, priority 2014, published 2015).

Legend:
3691 GBM cells = assay: Subcutaneous flank tumor study, 3691 GBM xenograft; type: in vivo, mice
Protocol: All animal studies described were approved by the Cleveland Clinic Foundation Institutional Animal Care and Use Committee and conducted in accordance with the NIH Guide for the Care and Use of Laboratory Animals. For subcutaneous tumor studies, 1×10^5 freshly dissociated GBM cells from a xenograft originally derived from a primary GBM patient specimen (3691) were injected into the flanks of 10 six week old female athymic nu/nu mice. Tumors were allowed to reach approximately 0.12 cm^3, at which point animals were randomized into either vehicle control (DMSO) group or ispinesib (10 mg/kg given daily for 7 consecutive days by intraperitoneal injection) (Selleck Chemicals, Houston, Tex.). Tumors were monitored and measured daily using perpendicular diameter measurements for 7 days. Tumor volume was calculated using the ellipsoid formula π/6×larger diameter×(smaller diameter)^2. After the last treatment on Day 7, tumors were removed and weighed then processed for immunofluorescence (as described below). For intracranial implantation studies to evaluate tumor initiation by GSCs, the cells were isolated as described below and pre-exposed to drug or vehicle either in vitro or in vivo. For in vitro pre-exposure studies, GSCs from xenograft 3691 were seeded at single cell density and treated with vehicle or ispinesib (3 nM) for 18 hours (300,000 cells per condition). Drug was then washed off and 2,500 or 25,000 viable GSCs were implanted into the right frontal lobes of male NSG mice (n=10 for vehicle, n=7 for ispinesib). For in vivo pre-exposure studies, subcutaneous tumors were established as described above. When tumors reached ˜0.5 cm^3, mice were randomized into a vehicle (DMSO) or ispinesib (10 mg/kg given daily for 3 consecutive days) group. 4 hours after the final treatment, GSCs were isolated as described below and 1,000 or 10,000 viable GSCs were then intracranially implanted into NSG mice (10 mice per group). Mice were monitored daily for neurological impairment at which time they were sacrificed and brains removed to evaluate for tumor development. […]

08-387 GSCs = assay: Nascent process analysis; type: cell-based, human; settings: 200 nM; 6-hour time course; p<0.0001
Protocol: 08-387 GSCs enriched in interphase were seeded at 6,000 cells per well of a 6 well plate and allowed to adhere for 1 hour. Cells were then exposed to vehicle or 200 nM ispinesib and images recorded over a 6-hour period using the IncuCyte ZOOM (Essen Biosciences, Ann Arbor, Mich.). Process formation was measured using CellPlayer NeuroTrack Software Module (Essen Biosciences).

Eg5 = biological target: T1, Eg5 (Homo sapiens, UniProt P52732); settings: cited from earlier work
T1 sequence (P52732 1-1056): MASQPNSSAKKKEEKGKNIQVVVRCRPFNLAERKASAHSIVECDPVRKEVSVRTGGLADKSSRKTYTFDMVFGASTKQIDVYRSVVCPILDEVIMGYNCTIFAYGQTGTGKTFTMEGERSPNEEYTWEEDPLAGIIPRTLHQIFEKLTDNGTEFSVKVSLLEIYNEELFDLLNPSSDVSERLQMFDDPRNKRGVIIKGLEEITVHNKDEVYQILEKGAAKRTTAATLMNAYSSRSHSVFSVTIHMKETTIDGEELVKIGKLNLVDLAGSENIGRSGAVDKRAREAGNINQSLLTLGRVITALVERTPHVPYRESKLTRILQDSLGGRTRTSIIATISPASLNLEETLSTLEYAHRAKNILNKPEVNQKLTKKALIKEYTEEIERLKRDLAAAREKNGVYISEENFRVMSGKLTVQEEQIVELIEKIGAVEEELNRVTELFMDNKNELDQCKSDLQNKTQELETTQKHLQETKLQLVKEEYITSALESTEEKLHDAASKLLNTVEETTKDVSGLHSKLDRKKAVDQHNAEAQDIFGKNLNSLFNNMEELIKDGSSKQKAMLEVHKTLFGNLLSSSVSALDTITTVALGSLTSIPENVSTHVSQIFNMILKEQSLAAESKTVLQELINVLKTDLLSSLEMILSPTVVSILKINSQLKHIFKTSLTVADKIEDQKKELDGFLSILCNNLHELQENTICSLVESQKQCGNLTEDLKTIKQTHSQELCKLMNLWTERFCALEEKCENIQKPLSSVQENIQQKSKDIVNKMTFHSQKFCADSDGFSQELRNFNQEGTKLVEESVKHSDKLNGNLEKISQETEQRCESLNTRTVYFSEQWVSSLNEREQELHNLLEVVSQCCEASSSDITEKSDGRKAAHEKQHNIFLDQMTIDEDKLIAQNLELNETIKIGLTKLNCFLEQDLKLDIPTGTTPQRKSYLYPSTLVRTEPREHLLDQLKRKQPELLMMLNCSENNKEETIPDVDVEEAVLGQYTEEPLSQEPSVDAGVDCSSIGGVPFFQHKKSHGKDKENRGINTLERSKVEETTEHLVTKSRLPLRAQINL

Cc1ccc(C(=O)N(CCCN)[C@@H](c2nc3cc(Cl)ccc3c(=O)n2Cc2ccccc2)C(C)C)cc1 [ispinesib, N-(3-amino-propyl)-n-[R-1-(3-benzyl-7-choloro-4-oxo-3,4-dihydroquinazolin-2-yl)-2-methyl-propyl]-4-methyl-benzamide methanesulfonate]
tumor volume (3691 GBM cells; 10 mg/kg daily intraperitoneal, 7 consecutive days): significantly reduced | tumor weight (3691 GBM cells; 10 mg/kg daily intraperitoneal, 7 consecutive days, day 7): significantly reduced | Sox2 positive cells in end stage tumors (3691 GBM cells; 10 mg/kg daily, 7 days): no Sox2 positive cells | process length in GSCs (08-387 GSCs): appreciably attenuated | selectivity for Eg5 over other kinesins (Eg5): 40,000 times
